One compound from patent publication US20130324543A1, “REVERSAL OF HIGH BREAST CANCER RISK IN MAMMALS EXPOSED TO ESTROGENIC CHEMICALS IN UTERO BY ADULT EXPOSURE TO HDAC AND DNMT INHIBITORS” (Georgetown University, priority 2012, published 2013) can be followed below.

The subject of the data set is mammary tumors. The data set can be described thus: MPA/DMBA-induced mammary tumorigenesis in mice exposed in utero to EE2 or GEN, with or without adult HDAC+DNMT inhibitors. To be noted: mouse, in vivo. The procedure: Time pregnant C57BL/6 female mice were obtained from Harlan (Harlan-Teclad, USA) on gestation day 6, and were randomly assigned into three groups on the following day (gestation day 7). The basic diet formulation in the study was a semi-purified AIN93G (the American Institute of Nutrition) modified to replace soy oil for corn oil; all the diets of the three treatment groups were also purchased from Harlan. The diets were isocaloric, as ethinyl estradiol (EE2) or genistein (GEN) were added in the diet at the expense of comstarch. Additions to the basic diet were as follows: 1) EE2 0.1 ppm, and 2) GEN 500 ppm. EE2 was purchased from Sigma Chemicals (St. Louis, Mo., USA), and GEN was a gift from Dr. William Helferich (University of Illinois, Urbana, Ill., USA).
The pregnant dams were fed these diets until the day of the delivery of their pups (Post Natal Day 0, PND 0). Starting on PND 0, all mice were fed the control diet until the end of the study. Female mice born from the dams fed with the different above mentioned diets were used in the subsequent studies. For study outline, see FIG. 12. Animals were housed in a temperature- and humidity-controlled room under a 12-hour light-dark cycle. All animal procedures were approved by the Georgetown University Animal Care and Use Committee, and the experiments were performed following the National Institutes of Health guidelines for the proper and humane use of animals in biomedical research.
Mammary tumors were induced by administration of a subcutaneous injection of Medroxyprogesterone Acetate (MPA) to mice at 6 weeks of age, followed by administration of 1 mg 7,12-dimethylbenz(a)anthracene (DMBA) (Sigma, St. Louis, Mo.) weekly for four weeks (weeks 7, 8, 9, 10) (23). The carcinogen was dissolved in corn oil and administered by oral gavage in a volume of ca. 0.1 ml.
One week after the last dose of DMBA was administered, some of the mice were started on hydralazine (5 mg/kg/day) and valproic acid treatments (1.16 g/kg/day) treatments.
The two compounds were given in a drinking water, which was prepared fresh twice a week. The doses were chosen based on the literature (24-26). The number of animals in each group is as follows: Control n=18, Control given HDAC+DNMT inhibitors n=9, EE2 n=9, EE2 given HDAC+DNMT inhibitors n=6, GEN n=14, and GEN given HDAC+DNMT inhibitors n=8.
Mice were examined for mammary tumors by palpation once per week. Tumor growth was monitored for 16 weeks after the last dose of DMBA administration. During the follow-up, animals in which tumor burden approximated 10% of total body weight were euthanized, as required by the ethical guidelines of our institution. All surviving animals were sacrificed at that point for sample collection. The end-points for tumor data analysis were (i) latency to tumor appearance, (ii) the number of animals with tumors (tumor incidence), and (iii) the cumulative tumor area (tumor burden). The latter was achieved by adding the total tumor area per group each week and dividing it with the number of mice in the group.
Mammary tumor latency was compared with the final tumor burden in utero EE2 and GEN exposed mice to control mice, and in utero EE2 and GEN exposed mice to control mice exposed to HDAC+DNMT inhibitors separately; analysis was done using one-way ANOVA. Cumulative tumor burden during 16 weeks of tumor monitoring in the three groups, separately in those mice not given HDAC+DNMT inhibitors and those treated with the epigenetic drugs, was analysed using repeated measures one-way ANOVA. Log rank analysis was performed to compare mammary tumor incidence in the control and in utero EE2 and GEN exposed mice, again separately in those mice not given HDAC+DNMT inhibitors and those treated with the epigenetic drugs. Data for changes in DNMT1 expression among the groups in the mammary glands and tumors were assessed using two-way ANOVA, followed by Fisher LSD test

`C#C[C@]1(O)CC[C@H]2[C@@H]3CCc4cc(O)ccc4[C@H]3CC[C@@]21C` [EE2, ethinyl estradiol]: the “Final tumor burden per mouse” value is given as “significantly higher”, the Mammary tumor incidence result is “significantly higher” and the mammary tumorigenesis result is “increased mammary tumorigenesis”.
